Results from a melting point compilation (Tetko et al.; mined from patent text by program, amines drawn as free bases though some values may be those of a salt).

Compound	melting point
CCCCCCNc1ncnc2c1ncn2C1CC(F)C(CO)O1 (configuration not stated)	83 °C
N=C(NC(=O)c1ccccc1)N1CCc2[nH]cnc2C1	228 °C
O=[N+]([O-])OCCNC(=S)Cc1ccccc1	63 to 65 °C
CCN(CC)CCN1C(=O)Nc2ccc([N+](=O)[O-])cc2C1c1ccccc1 (configuration not stated)	161 to 163 °C
COc1ccc(C(=O)NCCCCCCNC(=O)c2ccc(OC)cc2)cc1	177 to 178 °C
Nc1ccc(I)cc1C(=O)c1ccccc1Cl	120 to 122 °C
CCCc1c(Cc2ccc(-c3ccccc3C#N)cc2)c(O)nc2ccnn12	236 °C
CCC(Cl)C(=O)NCCSc1nc(C(C)(C)C)n[nH]1 (configuration not stated)	68 to 70 °C
O=[N+]([O-])c1cc(I)ccc1Nc1cccc(-n2cccn2)c1	165 to 166 °C
CN(C)CCNC1=C(Br)C(=O)c2sc(C(=O)N3CCN(C(=O)C4CCCO4)CC3)nc2C1=O (configuration not stated)	161 to 162 °C
Fc1ccc(-c2cc(-c3ccccc3)c(-c3ccccc3)s2)cc1	108 to 110 °C
O=C1CCCc2nc3ccccc3c(NCc3ccc(C(F)(F)F)cc3)c21	174 to 176 °C
CC(=O)NCc1ncccc1OCc1ccccc1	94 to 96 °C
COc1cccc(-c2nc(N)ncc2-c2ccc(=O)n(C(C)C)n2)c1	211 °C
O=C1Nc2ccccc2C(=NO)C1=O	241 to 242 °C
C=CC(=O)Oc1c(Br)c(Br)c(Br)c(Br)c1OC(=O)C=C	135 to 137 °C
CCOC(=O)C1C(=C=S)NCC1CCc1ccc(C(=O)O)cc1 (configuration not stated)	145 to 148 °C
CCOC(=O)Nc1nc(CC(=O)OC)ns1	110 to 112 °C
Cc1nc(-c2ccccc2)cc(=O)[nH]1	238 to 240 °C
CCCCCCCCCCCCOc1cc(CC#N)c(SC)cc1CC#N	100 to 102 °C
C#CCN(Cc1ccccc1)S(=O)(=O)c1ccc([N+](=O)[O-])cc1[N+](=O)[O-]	91 to 92 °C
Cc1noc(C)c1S(=O)(=O)n1c(=O)sc2ccccc21	140 to 144 °C
CCCOC1C=CC(=O)N1S(=O)(=O)c1ccccc1 (configuration not stated)	56 to 58 °C
Cc1ccc(S(=O)(=O)NC(=O)/C=C/c2c(C)nn(C)c2-n2ccc3cccnc32)cc1	237 to 238 °C
Cn1nc(-c2ccccc2S(=O)(=O)Cl)oc1=O	122 to 125 °C
CCCCc1c(C)[nH]c(C(=O)OCC)c1OCC1CO1 (configuration not stated)	125 to 127 °C

Compound	melting point
Cc1ccc2cccc(N3CCNCC3)c2n1	163 to 164 °C
COc1ccc2c(c1)C(c1ccc(N)cc1)=NN(C(=O)C1CC1)C(C)=C2	214 to 216 °C
COC1CC(C)(OCc2ccccc2)C2COC1O2 (configuration not stated)	45 to 46 °C
COc1cc2c(cc1OC)-c1c(OC)c(OC)cc3ccnc(c13)C2=O	229 to 230 °C
Nc1ccc2sc(-c3cccnc3)nc2c1	189 to 196 °C
COc1cc(F)c(C(=O)Oc2ccc(C(=O)O)cc2)cc1C12CC3CC(CC(C3)C1)C2	268 to 270 °C
O=C(O)CC(Sc1cccs1)C(=O)O (configuration not stated)	136 to 138 °C
CC(CN1C(C)CCC1C)N1c2ccccc2Sc2ccc(C#N)cc21 (mixture of isomers)	105 °C
O=C1C(c2cccc(O)c2)CCCCN1Cc1ccccc1 (configuration not stated)	160 to 166 °C
COC(=O)c1ccc(CN2CCC(N)CC2)nc1	173 to 175 °C
O=C(OCCc1c(-c2ccccc2)n2nnnc2n2ncnc12)C12CC3CC(CC(C3)C1)C2	129 to 130 °C
CCOC(=O)C(C(C)C)S(=O)(=O)c1ccc(OC)cc1 (configuration not stated)	53 °C
CC1(C)OC2C=CC(=O)C2O1 (single isomer, unassigned; (+))	68 to 69 °C
COc1cc(N(C(=O)COCCOCC(N)=O)c2cc(OC)cc3ccc(C)nc23)c2nc(C)ccc2c1	191 to 193 °C
C(=C\c1nc(COc2ccc(CCCn3ccnc3)cc2)co1)/c1ccccc1	127 to 128 °C
Cc1nnc2ccc(-c3ccc(C(F)(F)F)cc3)nn12	199 to 201 °C
O=C1C2=C(CCCC2)C(=O)N1c1ccc2c(c1)NC(=O)C21CC1	274 to 276 °C
COc1ccc(C(=O)NCCCCCCCNC(=O)c2ccc(OC)cc2)cc1	157 to 159 °C
COCOc1cc(Cl)c(Br)cc1C(=O)c1ncccc1OCOC	70 to 72 °C
CCCCCCCCCCCCS(=O)(=O)CCOc1ccc(C/C=C(\OC(C)=O)C(F)(F)F)cc1	48 to 49 °C
CCOC(=O)C=CN1C(C)(C)CC(=O)CC1(C)C	145 °C
CCOC(=O)NS(=O)(=O)c1ccc2c(c1)CCN(C(=O)N(C)C)CC2	140 to 141 °C
CCOC(=O)CCCN1CCN(C2=Nc3ccccc3Oc3ccc(Cl)cc32)CC1	86 to 87 °C
CC12CC3OC3CC1CCC1C2CCC2(C)C(O)C(N3CCCC3)CC12 (configuration not stated)	156 to 160 °C
CS(=O)(=O)Oc1ccc([C@@H]2CCNC(=O)[C@H]2c2ccccc2)cc1 (relative stereo)	199 °C

Second part, the compound after the results:

melting point	Compound
195 °C	CC(C)Cc1ccccc1Sc1c(O)cc(-c2ccccc2)oc1=O
98 °C	CC(C)(C)c1cc(SC2CCOC2=O)cc(C(C)(C)C)c1O (configuration not stated)
155 to 156 °C	CCOP(=O)(OCC)C(F)(F)c1ccc(NC(=O)CCc2oc(-n3cnc4ccccc43)nc2-c2ccc(Cl)cc2)cc1
130 to 131 °C	OCc1ccc2c(c1)ncn2-c1cccc(-c2ccccc2)c1
141 to 142 °C	CCC(=CC(CNC(=O)c1cccnc1)=NO)C(C(C)C)[N+](=O)[O-] (configuration not stated)
186 to 188 °C	O=S(=O)(Nc1cccnc1Nc1ccccc1)c1ccc(Cl)cc1
211 to 213 °C	CCOC(=O)CN(C(=O)CN1C(=O)c2ccccc2C1=O)c1ccc(Cl)c(COc2cccc3ccc(C)nc23)c1Cl
140 to 141 °C	COc1cc(Br)c(C=O)cc1OCc1ccccc1
116 to 118 °C	CN(CCOc1ccccc1C(N)=O)CCc1ccc([N+](=O)[O-])cc1
176 to 178 °C	COc1c(F)cc2[nH]c(C)c(CC(=O)O)c2c1F
33 °C	Cc1oc2c(Br)cccc2c1C
231 to 232 °C	COC(=O)c1ccc(Nc2ccc(C#N)cc2NC(C)=O)cc1
201 to 203 °C	O=c1cc(-c2ccncc2)nc2n(CCCc3c[nH]c4ccccc34)ccn12
155 to 156 °C	CC(=O)Nc1ccc(-c2ccc(CCCC(=O)O)cc2)cc1Br
180 °C	O=C(O)COc1cc(F)c(N2CCOCC2)cc1C(=O)NCc1ccc(Br)cc1F
52 to 53 °C	CCC(=O)c1ccc(SC)cn1
220 to 222 °C	Cc1oc(-c2ccccc2)nc1CCOc1ccc(C[C@@H](C(=O)O)N2CCN(c3ccccc3)CC2)cc1Br
198 to 199 °C	O=C1NCc2c(-c3ccccc3)cccc2N1Cc1ccccc1
254 °C	Cn1c(=O)[n+]([O-])c(-c2ccccc2)c2cc(Cl)ccc21
115 to 117 °C	CC(C)(C)OC(=O)N1CCN(c2ccccc2O)CC1
107 to 108 °C	N#CCNC(=O)COc1ccc(Cl)cc1Cl
144 °C	O=C(/C=C/c1c(F)cccc1Cl)/C=C/c1c(F)cccc1Cl
163 °C	Cn1cc(-c2cc(-c3cnc4[nH]ccc4c3)ccn2)n(-c2ccc(N3CCNCC3)c(C(F)(F)F)c2)c1=O
189 to 190 °C	CC(C)n1c(CO)c(-c2ccc(F)cc2)c(-c2ccccc2)c1C(N)=O
138 to 143 °C	O=C(O)CN(CC(=O)O)Cc1cc(S(=O)(=O)c2ccc(OCc3ccccc3)cc2)cc(CN(CC(=O)O)CC(=O)O)c1O
133 to 135 °C	Cc1cn(C[C@H]2CC[C@@H](CO)O2)c(=O)[nH]c1=O

melting point	Compound
152 °C	Cc1cc(Cn2nc(-c3ccccc3)oc2=O)cc(C(C)(C)C)c1O
189 to 191 °C	CNc1nccc(-c2c(-c3ccc(F)cc3)ccn2C2CCNCC2)n1
73 to 76 °C	COc1ccccc1OCCOS(C)(=O)=O
135 to 140 °C	Cn1c(-c2ccc(-c3ccncc3)cc2)cnc1[C@H](Cc1ccccn1)N(C=O)c1cc2cc(Cl)ccc2o1
220 °C	COc1ccc2[nH]c3c(c2c1)C(C)CNC3=O (configuration not stated)
229 to 233 °C	Cc1csc2c1S(=O)(=O)N(C)C(C(=O)Nc1cccccc1=O)=C2O
264 to 266 °C	COc1ccc(-c2cc(C(=O)O)cc3ccc4c(c23)OCO4)cc1
106 to 110 °C	CC1CCC(N(CC2CCCC(CN(C(=O)Nc3ccc(N(C)C)cc3)C3CCC(C)CC3)C2)C(=O)Nc2ccc(N(C)C)cc2)CC1 (configuration not stated)
201 °C	COc1ccc(C(=O)Cn2cc[nH]c2=O)cc1OC1CCCC1
98 to 100 °C	CCOC(=O)c1cnc(-c2ccccc2)nc1Nc1ccccc1
220 to 222 °C	Cc1cc(C)n2nc(S(=O)(=O)N(C)c3c(Cl)cccc3Cl)nc2n1
129 °C	Cn1c(=O)n(Cc2ccccc2)c2cc(Cn3ccnc3)ccc21
212 to 215 °C	CC(=O)NC(CC(=O)c1cc(Cl)ccc1N)C(=O)NC(CO)c1ccccc1 (configuration not stated)
101 to 104 °C	CC(C)=CCn1c(N(C)C[C@@H](C)N)nc2c1c(=O)n(C)c(=O)n2C
101 °C	CNC(=O)[C@@H](NC(=O)[C@@H](CC(C)C)C(C(=O)O)C(=O)O)C(C)(C)C
195 to 196 °C	Clc1nc(-n2cnc(-c3ccccc3)c2-c2ccccc2)c2ccccc2c1-c1ccccc1
180 to 182 °C	CC(=O)NC[C@H]1CN(c2ccc(N3CCC(C)(O)CC3)c(F)c2)C(=O)O1
166 to 167 °C	CC1=C(C2C=CN(C(=O)OCC(Cl)(Cl)Cl)c3ccccc32)SCC(=O)N1 (configuration not stated)
176 to 178 °C	CC(C(N)=O)c1ccc2c(c1)C(=O)Cc1ccc(F)cc1S2 (configuration not stated)
65 °C	CCOC(=O)C(O)=CC=C(SC)C(=O)c1ccc(N2CCCCC2)cc1
88 to 89 °C	Cc1oc(-c2ccccc2)nc1C(=O)CBr
196 °C	CCC(C)C(=O)NC1CCC(CCN2CCN(c3nccc4c3OCC4)CC2)CC1 (racemic)
50 to 52 °C	CCN(CC)CCNC(C(=O)NC(C)(C)C)c1ccccc1 (configuration not stated)
218 °C	CC(=O)C1=C(O)C(=C(C)Nc2cccc(NC(=O)C(O)CO)c2)C(=O)OC1=O (configuration not stated)
32 °C	CC(C)c1nc(Cl)c([N+](=O)[O-])c(Cl)n1
